For series [1] the following is noted: Maynard et al. J Med. Chem. 1994; cited from earlier work.
Series [2] has as its system SREBP. Nature of the series: SREBP luciferase reporter assay (pSRE-Luc) in CHO-K1 cells. It counts as cell-based. The settings on record: for SREBP inhibitory activity (expression of SREBP-responsive luciferase reporter gene): CHO-K1 cells, 5 μM compound, lipid-free medium, 24 h, FIGS. 1 and 3. On the procedure: (§1) Cell Culture: CHO-K1 cells were maintained in medium A (1:1 mixture of Ham's F-12 medium and DMEM, supplemented with 100 units/mL penicillin, 100 μg/mL streptomycin sulfate, and 5% [v/v] fetal bovine serum) at 37° C. in a humidified 5% CO2 incubator.
(§2) CHO-K1 cells were seeded into 96-well plates at 8×10^3 cells per well in medium A and incubated for 24 h. For SREBP reporter assay, cells were co-transfected with an SRE-1-driven luciferase reporter plasmid (pSRE-Luc) and an actin promoter-driven β-galactosidase expression plasmid (pAc-13-gal) at a 20:1 ratio, using FuGENE HD Transfection Reagent (Promega) according to the manufacturer's protocol.
(§3) After 20 h, the medium was changed to medium B (1:1 mixture of Ham's F-12 medium and DMEM, supplemented with 100 units/mL penicillin, 100 μg/mL streptomycin sulfate, 5% [v/v] lipid-depleted serum, 50 μM compactin (Tokyo Chemical Industry), and 50 μM lithium mevalonate (Sigma-Aldrich) containing the specific test compounds. After 24 h incubation, the cells in each well were lysed with 100 μL of 1× Reporter Lysis Buffer (Promega), and 50 μL of aliquots were used to measure luciferase and 13-gal activities. Luciferase activity was measured using the Steady-Glo Luciferase Assay System (Promega), and 13-gal activity was measured using the 13-Galactosidase Enzyme Assay System (Promega). Luciferase activity was normalized to 13-gal activity.
[…] The same experiment using of 25(OH)D3 (1) was performed as control. Values are mean±SD.
Background: In a reporter assay the amount or activity of a reporter protein is the signal.

The subject of series [3] is VDR. As to the kind of experiment: VDR reporter assay (Cignal Vitamin D Receptor Reporter) in CHO-K1 cells. It counts as cell-based. The settings on record: 5 μM compound, lipid-free medium, FIGS. 2 and 4. On the procedure: as §1, §2
For VDR reporter assay, Cignal Vitamin D Receptor Reporter (QIAGEN) was transfected instead of pSRE-Luc.
as §3
For the VDR assay, CHO-K1 cells were treated with 5 μM of the compounds in a lipid-free medium. The same experiment using 25(OH)D3 (1) was performed as control. Values are mean±SD.

A short description of series [4]: Short-term in vivo model: serum calcium levels. Set-up: species or system mice. The settings on record: 10 mg/kg intraperitoneally, after 4 days, n=3, FIG. 5D. As for the experimental part: (§4) To quickly and simultaneously examine their SREBP inhibitory activity and VDR-derived calcemic activity in vivo, a short-term in vivo screening system of mice was established. With reference to the previous report (Horton, J. D. et al. Proc. Natl. Acad. Sci. U.S.A. 1998, 95, 5987-5992.), mice were fasted for 48 hours then refed a special diet (low fat, high carbohydrate diet, lacking in vitamin D) for 48 hours before sacrifice.
(§5) C57BL/6 and oh/oh mice were purchased from CLEA Japan and Charles River Japan, Inc., respectively. Animal experiments were carried out at the University of Tokyo and Charles River Laboratories. Low fat, high carbohydrate diet, lacking vitamin D was custom made by Research Diets, Inc. Compounds disclosed herein and 25(OH)D3 were dissolved in ethanol/Tween 20 (9:1) to obtain stock solution and then diluted 10-fold with PBS immediately before administration to mice.
(§6) 10 mg/kg compounds or vehicle control were administered intraperitoneally once every 24 hours during the fasting and refeeding.
Following sacrifice, mouse livers were fixed in 10% neutral-buffered formalin, embedded in paraffin, sectioned, and stained with H&E. Hepatic lipids were extracted with chloroform/methanol (2:1 v/v), and TG and cholesterol contents were measured with Triglyceride Reagent Set (Pointe Scientific) and Cholesterol E (Wako), respectively. Serum levels of ALT, TG, glucose, cholesterol, and calcium were measured in SRL Inc. (Tokyo). All experiments were approved by the Ethics Committee for Animal Experimentation of the University of Tokyo and Charles River Laboratories Japan, and were conducted in accordance with the Guidelines for the Care and Use of Laboratory Animals.
Serum calcium levels in the mice treated with vehicle, compounds, or 25(OH)D3 were determined (means±SEM, n=3 per group), *p<0.05 (FIG. 5D).

Series [5] has as its system SREBP-responsive genes. Nature of the series: Short-term in vivo model (fasting/refeeding): hepatic mRNA of SREBP-responsive genes by real-time PCR. Set-up: species or system mice. The settings on record: for hepatic expression of SREBP-response genes ACC1 and FASN versus vehicle: 10 mg/kg intraperitoneally once every 24 hours, fasted 48 h/refed 48 h, n=3, FIG. 5C. As for the experimental part:
as §4, §5, §6
Relative mRNA levels of SREBP-responsive genes were determined by real-time PCR in the livers obtained from the mice with free access to a normal diet or fasted and refed a special diet (means SEM, n=3 per group), *p<0.05.
Expression levels of SREBP-responsive genes were determined by real-time PCR in the livers obtained from the mice treated with indicated compounds (10 mg/kg) according to the protocol illustrated in FIG. 5A. Data are expressed as relative expression to the mean value of vehicle-treated mouse liver (means±SEM, n=3 per group), *p<0.05 (FIG. 5C).
Relative mRNA levels of SREBP-responsive genes were determined by real-time PCR in the livers obtained from the indicated mice Data are means±SEM (fed mice, n=3; others, n=6), *p<0.05 (FIG. 5E).
In general terms: Quantitative PCR measures a nucleic acid by following its amplification.

The subject of series [6] is SREBP/SCAP. Conditions: Nagata, ACS Chem. Biol. 2019; cited from earlier work.
The conditions of series [7]: cited from earlier work.

The source of these data is US11932595B2, “VDR-silent vitamin D derivative as inhibitors of SREBP and pharmaceutical use thereof” (KYOTO UNIVERSITY, priority 2020, dated 2024).

Take `CC1=C(/C=C\C2=CCC[C@@]3(C)[C@@H]2CC[C@@H]3[C@H](C)CCCC(C)(C)O)C[C@@H](O)C[C@@H]1O` [14-epi-25(OH) D3, reference compound]: the calcemic action entry in series [1] was “markedly decreased calcemic action”. Moreover, the “expression of an SREBP-responsive luciferase reporter” value in series [2] (screening of in-house collection, data not shown) is given as “comparable level to 25(OH)D3”.

With `C[C@H](CCCC(C)(C)O)[C@H]1CC[C@H]2/C(=C/C(=O)N3CCCCC3)CCC[C@]12C` [Compound 19, 2-{(1R,3 aS,7 aR,E)-1-[(R)-6-Hydroxy-6-methylheptan-2-yl]-7a-methyloctahydro-4H-inden-4-ylidene}-1-(piperidin-1-yl)ethan-1-one], the “SREBP inhibitory activity (expression of SREBP-responsive luciferase reporter gene)” value (from here on “SREBP inhibitory activity”) in series [2] was “little effect”.

With `C[C@H](CCC(F)(F)C(C)(C)O)[C@H]1CC[C@H]2/C(=C/Cn3nnnc3-c3ccc(F)cc3)CCC[C@]12C` [Compound 51, (R)-3,3-Difluoro-6-[(1R,3aS,7aR,E)-4-{2-[5-(4-fluorophenyl)-1H-tetrazol-1-yl]ethylidene}-7a-methyloctahydro-H-inden-1-yl]-2-methylheptan-2-ol], in series [2], the “SREBP inhibitory activity” value is reported as “maintained SREBP inhibitory activities”. Moreover, the “VDR activity (VDR reporter activation)” value in series [3] is given as “lacked in VDR activity”.

Consider `C[C@H](CCC(F)(F)C(C)(C)O)[C@H]1CC[C@H]2/C(=C/Cn3nnc(-c4ccc(F)cc4)n3)CCC[C@]12C` [Compound 49, 3,3-Difluoro-6-[(1R,3aS,7aR,E)-4-{2-[5-(4-fluorophenyl)-2H-tetrazol-2-yl]ethylidene}-7a-methyloctahydro-1H-inden-1-yl]-2-methylheptan-2-ol], for which, in series [4], the serum calcium levels entry was “no detectable increase”. In addition, the “SREBP inhibitory activity” value in series [2] is on record as “maintained SREBP inhibitory activities”. In series [3], the “VDR activity (VDR reporter activation)” value is on record as “lacked in VDR activity”. For the same compound, the “hepatic expression of SREBP-response genes ACC1 and FASN versus vehicle” value in series [5] is reported as “significantly suppressed”. In addition, the “elevated hepatic expression of the three SREBP-responsive genes ACC1, FASN and SCD1” value in series [5] (10 mg/kg intraperitoneally, fasting/refeeding, FIG. 5C) is “mitigated the elevated expression”.

In the case of `Cc1ccc(S(=O)(=O)N[C@@H]2C/C(=C/C=C3\CCC[C@]4(C)[C@@H]([C@H](C)CCCC(O)(C(F)(F)F)C(F)(F)F)CC[C@@H]34)C[C@@H](F)C2)cc1` [Compound 3], the “effect on SREBP/SCAP and VDR activity in cultured cells” value in series [6] is recorded as “selectively impaired SREBP/SCAP without eliciting VDR activity”. Moreover, in series [7] (high doses), the “calcemic activity in vivo” value is “residual calcemic activity”. In addition, the bioavailability result in series [7] (in vivo) is on record as “low”.

`C[C@H](CCCC(C)(C)O)[C@H]1CC[C@H]2/C(=C/Cn3ncnn3)CCC[C@]12C` [Compound 22]: in series [3], the “VDR activity (VDR reporter activation)” value is listed as “detectable VDR activity”.

As for `C[C@H](CCCC(C)(C)O)[C@H]1CC[C@H]2/C(=C/C(=O)N3CCOCC3)CCC[C@]12C` [Compound 20, 2-{(1R,3aS,7aR,E)-1-[(R)-6-Hydroxy-6-methylheptan-2-yl]-7a-methyloctahydro-4H-inden-4-ylidene}-1-morpholinoethan-1-one], the “SREBP inhibitory activity” value in series [2] is reported as “little effect”.

With `C[C@H](CCCC(C)(C)O)[C@H]1CC[C@H]2/C(=C/Cn3cc(-c4ccccn4)nn3)CCC[C@]12C` [Compound 26, (R)-2-Methyl-6-[(1R,3aS,7aR,E)-7a-methyl-4-{2-[4-(pyridin-2-yl)-1H-1,2,3-triazol-1-yl]ethylidene}octahydro-1H-inden-1-yl]heptan-2-ol], the “VDR activity (VDR reporter activation)” value in series [3] is on record as “detectable VDR activity”.

`C[C@H](CCC(F)(F)C(C)(C)O)[C@H]1CC[C@H]2/C(=C/Cn3cc(-c4ccc(F)cc4)nn3)CCC[C@]12C` [Compound 47, (R)-3,3-Difluoro-6-[(1R,3aS,7aR,E)-4-{2-[4-(4-fluorophenyl)-1H-1,2,3-triazol-1-yl]ethylidene}-7a-methyloctahydro-1H-inden-1-yl]-2-methylheptan-2-ol]: in series [2], the “SREBP inhibitory activity” value is recorded as “maintained SREBP inhibitory activities”. Also, the “VDR activity (VDR reporter activation)” value in series [3] was “lacked in VDR activity”.

For the compound `C[C@H](CCCC(O)(C(F)(F)F)C(F)(F)F)[C@H]1CC[C@H]2/C(=C/Cn3cc(-c4ccc(F)cc4)nn3)CCC[C@]12C` [Compound 39, (R)-1,1,1-Trifluoro-6-[(1R,3aS,7aR,E)-4-{2-[4-(4-fluorophenyl)-1H-1,2,3-triazol-1-yl]ethylidene}-7a-methyloctahydro-1H-inden-1-yl]-2-(trifluoromethyl)heptan-2-ol], in series [4], the serum calcium levels result is “elevated levels of serum calcium”. Also, the “SREBP inhibitory activity” value in series [2] is on record as “maintained SREBP inhibitory activities”. For the same compound, the “VDR activity (VDR reporter activation)” value in series [3] is “lacked in VDR activity”. The “hepatic expression of SREBP-response genes ACC1 and FASN versus vehicle” value in series [5] is “significantly suppressed”.

Turning to `C[C@H](CCCC(C)(C)O)[C@H]1CC[C@H]2/C(=C/Cn3cc(CCCCO)nn3)CCC[C@]12C` [Compound 29, 6-[(1R,3aS,7aR,E)-4-{2-[4-(4-Hydroxybutyl)-1H-1,2,3-triazol-1-yl]ethylidene}-7a-methyloctahydro-1H-inden-1-yl]-2-methylheptan-2-ol], the “VDR activity (VDR reporter activation)” value in series [3] is on record as “detectable VDR activity”.

In the case of `C[C@H](CCCC(C)(C)O)[C@H]1CC[C@H]2/C(=C/Cn3cnnn3)CCC[C@]12C` [Compound 21, (R)-6-{(1R,3aS,7aR,E)-4-[2-(1H-Tetrazol-1-yl)ethylidene]-7a-methyloctahydro-1H-inden-1-yl}-2-methylheptan-2-ol], the “VDR activity (VDR reporter activation)” value in series [3] is “detectable VDR activity”.

In the case of `C[C@H](CCCC(O)(C(F)(F)F)C(F)(F)F)[C@H]1CC[C@H]2/C(=C/Cn3cc(-c4ccccc4)nn3)CCC[C@]12C` [Compound 38, (R)-1,1,1-Trifluoro-6-{(1R,3aS,7aR,E)-7a-methyl-4-[2-(4-phenyl-1H-1,2,3-triazol-1-yl)ethylidene]octahydro-1H-inden-1-yl}-2-(trifluoromethyl)heptan-2-ol], in series [4], the serum calcium levels entry is given as “elevated levels of serum calcium”. Also, in series [5], the “hepatic expression of SREBP-response genes ACC1 and FASN versus vehicle” value is “significantly suppressed”.
